According to patent US5665769A, “Pharmaceutical composition for preventing and treating retinal diseases” (Senju Pharmaceuticals Co., Ltd., priority 1993, dated 1997):
Values joined by “and” are separate entries in the source; they are usually repeats but may differ in a detail not shown here. Equal entries are not always repeated.

Assays:
retina (rat) [1] = experiment: Retinal peroxidation induced by intravitreous injection of ferrous sulfate in rats, retinal TBA values (Experiment 1 (B-1)); format: in vivo, SD rats; settings: 1.5% suspension, 30 mg/kg oral
Description: (B) In vivo experiment in rats by intravitreous injection of ferrous ion:
(B-1) Evaluation by retinal TBA values
Antioxidative effects of oral administration of a suspension of 2-O-octadecylascorbic acid (30 mg/kg) on the retinal peroxidation induced by intravitreous injection of ferrous sulfate in rats were examined.
Seven weeks old SD rats fasted from the previous day were divided into 2 groups. A 5% solution of gum arabic (control)(2 ml/kg) was administered orally to one group in 3 divided portions. A 1.5% suspension (2 ml/kg) of 2-O-octadecylascorbic acid (30 mg/kg) was administered orally to the other group in 3 divided portions. Two hours after the first administration, rats were anesthetized systemically with ketamine hydrochloride. A 5 mM solution (5 μl) of ferrous sulfate was injected intravitreously into each of the left eyes, and physiological saline (5 μl) was injected intravitreously into each of the right eyes. Each injection was carried out using a microsyringe. One and four hours after the injection, a suspension of 2-O-octadecylascorbic acid or a 5% solution of gum arabic were administered again. Two hours after the third administration (i.e. six hours after the injection of ferrous ion), the rats were sacrificed. The eyeballs were removed, retinal homogenates were prepared from the eyes, and the TBA values and protein were determined.

retina (ERG in rats) = experiment: ERG changes induced by intravitreous injection of ferrous sulfate in rats (Experiment 1 (B-2)); format: in vivo, SD rats; settings: 30 mg/kg oral
From the text: FIG. 1 is a graph showing the a-wave amplitude of ERG in rats after intravitreous injection of ferrous ion in Experiment 1 (B-2). The abscissa indicates time (hour) and the ordinate indicates percentage (%) relative to the initial amplitude. In FIGS. 1 to 5, the compound (I) is 2-O-octadecylascorbic acid. FIG. 2 is a graph showing the b-wave latency of ERG in rats after intravitreous injection of ferrous ion in Experiment 1 (B-2). The abscissa indicates time (hour) and the ordinate indicates percentage (%) relative to the initial amplitude. FIG. 3 is a graph showing the b-wave amplitude of ERG in rats after intravitreous injection of ferrous ion in Experiment 1 (B-2). The abscissa indicates time (hour) and the ordinate indicates percentage (%) relative to the initial amplitude. (B-2) Evaluation by Electroretinogram (hereinafter referred to as ERG) determination Effects of oral administration of 2-O-octadecylascorbic acid (30 mg/kg) on the changes of ERG induced by intravitreous injection of ferrous sulfate in rats were examined. Twelve SD rats (7 weeks old) were fasted from the previous day. A 7.5 mM ferrous sulfate (5 μl) solution was injected intravitreously into each of the left eyes. A 1.5% suspension of 2-O-octadecylascorbic acid (30 mg/kg) or a 5% solution of gum arabic (control) was firstly administered orally 2 hours before the ferrous ion injection, and thereafter administered three times every 3 hours and then three times every 5 hours. ERG was determined 6, 9 and 24 hours after the ferrous ion injection and evaluated for the latency and amplitude of a-wave and b-wave.

retina (rat) [2] = experiment: Retinal light damage in rats, histopathology and retinal thickness (Experiment 2 (B-1)); format: in vivo; set-up: key to Vacuolation of retinal pigment epithelium / Disarrangement or vacuolation of inner and outer segments of visual cells / Infiltration of macrophage / Pyknosis and nuclear disappearance in outer nuclear layer / Thinning of retinal entire layer: -: not observable; ±: slightly observable; +: observable; ++: remarkably observable; settings: for Vacuolation of retinal pigment epithelium / Disarrangement or vacuolation of inner and outer segments of visual cells / Infiltration of macrophage / Pyknosis and nuclear disappearance in outer nuclear layer / Thinning of retinal entire layer: one line per animal
Description: (§1) (B) In vivo experiment by light exposure in rats
(§2) (B-1) Evaluation by retinal pathological tissues and rhodopsin amount
(§3) Rats were subjected to dark adaptation for 72 hours. Then the rats were irradiated continuously for 12 hours using a green fluorescent lamp (10 W, 490-580 nm), the illumination intensity of which was adjusted to 2000 to 2400 lux. A suspension of 1.5% or 5.0% 2-O-octadecylascorbic acid was orally administered three times a day (90, 300 mg/kg/day) on the day of light exposure, and once a day (30, 100 mg/kg/day) after that. To the control group was administered 5.0% gum arabic solution (control) according to the same schedule. After completion of the light exposure, the rats were reared in a dark room and sacrificed on the 5th day. The right eyes were marked with ink in the upper part and fixed with 2% paraformaldehyde and 2% glutaraldehyde solutions. Histopathological evaluation was made using a light microscope and the thickness of retinae (thickness of retinal entire layer and outer nuclear layer) was measured. The left eyes were stored under freezing conditions at -20° C. for rhodopsin determination after removal of the cornea, lens and vitreous body.

retinal rhodopsin = experiment: Retinal light damage in rats, retinal rhodopsin amount (Experiment 2 (B-1)); format: in vivo; settings: for Amount of retinal rhodopsin: mean ± S.D.
Description: as §1, §2, §3
Rhodopsin was determined as follows. Firstly, the optic cup was sliced under a red lamp in a dark room, and retinal homogenates were prepared using 0.1M phosphate buffer (pH 7.2). After centrifugation at 15,000 rpm for 15 minutes, the precipitation was treated with 4% potassium alum solution. After washing, rhodopsin was extracted with 1% Emulphogen BC-720 (trade mark). The absorbance at 500 nm was measured using the centrifuged supernatant as the sample. The sample was bleached by light exposure with a yellow lamp for 5 minutes. The absorbance at 500 nm was measured again. The rhodopsin amount was calculated from the difference between the absorbances before and after the bleach (molar absorption coefficient: 42,000).

mice = experiment: Acute toxicity test in mice (Experiment 3); format: in vivo
Description: Acute toxicity test of 2-O-octadecylascorbic acid
2-O-octadecylascorbic acid was tested for the acute toxicity test in mice. As a result, no mouse died even in oral administration of 1000 mg/kg. This compound has therefore low toxicity.

[3] = 9 hours after ferrous ion injection, compared to control
[4] = 1.5% suspension, mean ± S.D., n=5
[5] = 1.5% suspension, Nos. 1-5 in order
[6] = 5.0% suspension, mean ± S.D., n=3
[7] = 5.0% suspension, Nos. 1-3 in order

CCCCCCCCCCCCCCCCCCOC1=C(O)[C@@H]([C@@H](O)CO)OC1=O [2-O-octadecylascorbic acid]
increase in the TBA value of the retina induced by intravitreous injection of ferrous ion (retina (rat) [1]): significantly inhibited the increase in the TBA value of the retina | Retina: TBA value, left eye (retina (rat) [1]; left eye (ferrous sulfate injected), mean ± S.D., n=6, p < 0.01 vs control): 0.47 ± 0.11 nM malondialdehyde/mg protein | Retina: TBA value, right eye (retina (rat) [1]; right eye (physiological saline injected), mean ± S.D., n=6): 0.36 ± 0.06 nM malondialdehyde/mg protein | decrease of the amplitude of a-wave and b-wave (retina (ERG in rats); [3]): more marked tendency to inhibit the decrease of the amplitude of a-wave and b-wave | delay of the b-wave latency (retina (ERG in rats); [3]): the delay of the b-wave latency was significantly inhibited | recovery of amplitude (retina (ERG in rats); 24 hours after ferrous ion injection, both groups): The amplitude was not recovered even in the determination after 24 hours | delay of the latency and decrease of the amplitude of a-wave and b-wave (retina (ERG in rats); from 6 hours after ferrous ion injection, both groups): strongly observed in both groups | examples (animals) with remarkably observed retinal lesions (retina (rat) [2]; 1.5% suspension): four of five examples | Vacuolation of retinal pigment epithelium (retina (rat) [2]; 1.5% suspension (90 mg/kg/day oral on day of exposure, then 30), Nos. 1-5 in order): + | Thickness of outer nuclear layer, lesion (retina (rat) [2]; [4]): 16.0 ± 7.2 µM | Thickness of outer nuclear layer, near optic disk (retina (rat) [2]; [4]): 39.0 ± 8.8 µM | Thickness of retinal entire layer, lesion (retina (rat) [2]; [4]): 88.5 ± 22.3 µM | Thickness of retinal entire layer, near optic disk (retina (rat) [2]; [4]): 135.5 ± 27.9 µM | Disarrangement or vacuolation of inner and outer segments of visual cells (retina (rat) [2]; [5]): ++ (4×) and + | Infiltration of macrophage (retina (rat) [2]; [5]): ++ (4×) and - | Pyknosis and nuclear disappearance in outer nuclear layer (retina (rat) [2]; [5]): ++ (4×) and ± | Thinning of retinal entire layer (retina (rat) [2]; [5]): ++ (4×) and - | examples (animals) with remarkably observed retinal lesions (retina (rat) [2]; 5.0% suspension): one of three examples | Vacuolation of retinal pigment epithelium (retina (rat) [2]; 5.0% suspension (300 mg/kg/day oral on day of exposure, then 100), Nos. 1-3 in order): - and + (2×) | thickness of the retinal entire layer near optic disk (in words) (retina (rat) [2]; 5.0% suspension, compared with control): significantly larger than that in the control group | severity of lesions (retina (rat) [2]; 5.0% suspension, compared with control group): not so severe as those of the control group | Thickness of outer nuclear layer, lesion (retina (rat) [2]; [6]): 19.2 ± 11.3 µM | Thickness of outer nuclear layer, near optic disk (retina (rat) [2]; [6]): 48.3 ± 1.4 µM | Thickness of retinal entire layer, lesion (retina (rat) [2]; [6]): 84.2 ± 16.3 µM | Disarrangement or vacuolation of inner and outer segments of visual cells (retina (rat) [2]; [7]): ± and + and ++ | Infiltration of macrophage (retina (rat) [2]; [7]): - (2×) and ++ | Pyknosis and nuclear disappearance in outer nuclear layer (retina (rat) [2]; [7]): ± and + and ++ | Thinning of retinal entire layer (retina (rat) [2]; [7]): - and + and ++ | thickness of the outer nuclear layer near optic disk (in words) (retina (rat) [2]; suspension administered groups, compared with control): tends to be larger than that in the control group | Amount of retinal rhodopsin (retinal rhodopsin; 1.5% suspension, n=5): 0.51 ± 0.20 nM/eye | Amount of retinal rhodopsin (retinal rhodopsin; 5.0% suspension, n=3): 0.69 ± 0.14 nM/eye | decrease of the amount of rhodopsin by light exposure (in words) (retinal rhodopsin; suspension administered groups): the tendency to inhibit the decrease of the amount of rhodopsin by light exposure was observed | toxicity (mice; acute toxicity, mice, oral): low toxicity | mortality (mice; mouse, in vivo, po, 1000 mg/kg): no mouse died
